According to US7074789B2, “Kinase inhibitors” (Amgen Inc., priority 1999, dated 2006):

Columns and labels:
Assay type in all cases: biochemical
c-Met = target: T1, c-Met (Homo sapiens, UniProt P08581); experiment: Kinase inhibition assay (33P transfer), c-Met; settings: Table 2, kinase inhibition class; read-out: Met-1
T1 construct: Kinases are expressed as either kinase domains or full length constructs; made in house
Method in brief: (§1)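 Each enzyme, purified to near homogeneity by affinity chromatography, was incubated with ATP carrying 33P and a substrate polymer fixed to the plate. Unbound label was removed with dilute phosphoric acid (0.5%) before adding scintillant and counting. Potency is given as the compound level cutting label uptake by 50%.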

IGFR-1 = target: T2, IGFR-1 (Homo sapiens, UniProt P08069); experiment: Kinase inhibition assay (33P transfer), IGFR-1; settings: Table 2, kinase inhibition class
T2 construct: Kinases are expressed as either kinase domains or full length constructs; made in house

Itk = target: T3, Itk (Homo sapiens, UniProt Q08881); experiment: Kinase inhibition assay (33P transfer), Itk; settings: Table 3; read-out: Itk-1
T3 construct: Kinases are expressed as either kinase domains or full length constructs; made in house
T3 sequence (Q08881 1-620): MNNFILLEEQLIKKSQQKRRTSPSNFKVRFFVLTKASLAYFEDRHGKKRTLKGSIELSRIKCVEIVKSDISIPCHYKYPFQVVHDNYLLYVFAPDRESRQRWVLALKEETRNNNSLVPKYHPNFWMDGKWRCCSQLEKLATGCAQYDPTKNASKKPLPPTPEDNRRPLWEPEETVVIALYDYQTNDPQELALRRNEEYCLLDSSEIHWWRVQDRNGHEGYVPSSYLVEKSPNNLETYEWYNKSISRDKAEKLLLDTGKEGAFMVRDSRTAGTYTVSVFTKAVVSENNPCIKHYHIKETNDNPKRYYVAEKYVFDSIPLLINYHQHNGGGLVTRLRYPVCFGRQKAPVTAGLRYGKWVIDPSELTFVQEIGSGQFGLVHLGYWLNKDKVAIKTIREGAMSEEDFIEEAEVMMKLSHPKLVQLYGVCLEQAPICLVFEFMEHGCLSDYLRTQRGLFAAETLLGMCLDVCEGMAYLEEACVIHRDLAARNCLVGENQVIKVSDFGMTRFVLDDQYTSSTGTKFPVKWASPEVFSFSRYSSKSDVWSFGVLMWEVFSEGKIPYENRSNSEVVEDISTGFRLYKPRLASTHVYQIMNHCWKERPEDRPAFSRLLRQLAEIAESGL
Method in brief: as §1

Kdr = target: T4, Kdr (Homo sapiens, UniProt P35968); experiment: Kinase inhibition assay (33P transfer), Kdr; settings: Table 3; read-out: KDR-1
T4 construct: Kinases are expressed as either kinase domains or full length constructs; made in house
Method in brief: (§2)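 Radiometric readout: 33P incorporated into surface-bound poly(Glu,Tyr) 4:1 or poly(Arg,Ser) 3:1 is counted by liquid scintillation after a 0.5% phosphoric acid wash. Enzymes were GST or polyHis fusions (kinase domain or full length) from E. coli or High Five insect cells.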

Lck = target: T5, Lck (Homo sapiens, UniProt P06239); experiment: Kinase inhibition assay (33P transfer), Lck; settings: Table 3; read-out: Lck-1
T5 construct: Kinases are expressed as either kinase domains or full length constructs; made in house
Method in brief: as §2

EGFR = target: T6, EGFR (Homo sapiens, UniProt P00533); experiment: Kinase inhibition assay (33P transfer), EGFR; settings: Table 2, kinase inhibition class; read-out: EGFR-1
T6 construct: Kinases are expressed as either kinase domains or full length constructs; made in house
Method in brief: as §1

Zap-70 = target: T7, Zap-70 (Homo sapiens, UniProt P43403); experiment: Kinase inhibition assay (33P transfer), Zap-70; settings: Table 3; read-out: Zap-1
T7 construct: Kinases are expressed as either kinase domains or full length constructs; made in house
T7 sequence (P43403 1-619): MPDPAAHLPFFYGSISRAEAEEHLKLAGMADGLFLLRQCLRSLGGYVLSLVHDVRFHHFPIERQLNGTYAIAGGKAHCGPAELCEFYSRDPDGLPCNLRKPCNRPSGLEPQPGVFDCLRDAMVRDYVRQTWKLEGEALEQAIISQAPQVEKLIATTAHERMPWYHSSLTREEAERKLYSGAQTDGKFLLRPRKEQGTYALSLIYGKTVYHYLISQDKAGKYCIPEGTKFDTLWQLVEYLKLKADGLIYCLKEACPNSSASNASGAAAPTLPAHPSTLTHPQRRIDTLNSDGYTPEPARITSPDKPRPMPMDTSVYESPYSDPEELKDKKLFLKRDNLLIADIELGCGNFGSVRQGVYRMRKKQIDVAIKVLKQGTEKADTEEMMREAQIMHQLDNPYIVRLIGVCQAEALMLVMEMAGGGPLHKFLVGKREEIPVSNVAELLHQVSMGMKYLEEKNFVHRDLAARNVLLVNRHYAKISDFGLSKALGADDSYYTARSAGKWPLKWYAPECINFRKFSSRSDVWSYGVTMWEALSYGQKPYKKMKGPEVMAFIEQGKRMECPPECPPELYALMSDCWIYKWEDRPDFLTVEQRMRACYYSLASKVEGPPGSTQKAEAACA
Method in brief: as §2

AKT = target: T8, AKT (Homo sapiens, UniProt Q9Y243); experiment: Kinase inhibition assay (33P transfer), AKT; settings: Table 2, kinase inhibition class; read-out: AKT3-1
T8 construct: Kinases are expressed as either kinase domains or full length constructs; made in house
Method in brief: as §2

T8 sequence (Q9Y243 whole entry, the tested form may be a part): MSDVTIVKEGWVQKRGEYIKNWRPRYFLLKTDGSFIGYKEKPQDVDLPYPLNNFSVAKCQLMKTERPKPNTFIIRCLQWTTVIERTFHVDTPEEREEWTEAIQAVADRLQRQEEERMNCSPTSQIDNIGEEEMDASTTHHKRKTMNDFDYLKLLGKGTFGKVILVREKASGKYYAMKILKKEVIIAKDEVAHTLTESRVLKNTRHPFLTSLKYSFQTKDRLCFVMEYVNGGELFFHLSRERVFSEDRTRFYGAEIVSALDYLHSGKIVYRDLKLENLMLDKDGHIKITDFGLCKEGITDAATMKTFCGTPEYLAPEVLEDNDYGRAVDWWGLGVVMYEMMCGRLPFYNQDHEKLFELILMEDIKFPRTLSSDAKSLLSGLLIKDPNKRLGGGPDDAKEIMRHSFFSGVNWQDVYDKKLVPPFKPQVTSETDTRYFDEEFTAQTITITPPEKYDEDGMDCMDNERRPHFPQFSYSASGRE
T2 sequence (P08069 31-1367): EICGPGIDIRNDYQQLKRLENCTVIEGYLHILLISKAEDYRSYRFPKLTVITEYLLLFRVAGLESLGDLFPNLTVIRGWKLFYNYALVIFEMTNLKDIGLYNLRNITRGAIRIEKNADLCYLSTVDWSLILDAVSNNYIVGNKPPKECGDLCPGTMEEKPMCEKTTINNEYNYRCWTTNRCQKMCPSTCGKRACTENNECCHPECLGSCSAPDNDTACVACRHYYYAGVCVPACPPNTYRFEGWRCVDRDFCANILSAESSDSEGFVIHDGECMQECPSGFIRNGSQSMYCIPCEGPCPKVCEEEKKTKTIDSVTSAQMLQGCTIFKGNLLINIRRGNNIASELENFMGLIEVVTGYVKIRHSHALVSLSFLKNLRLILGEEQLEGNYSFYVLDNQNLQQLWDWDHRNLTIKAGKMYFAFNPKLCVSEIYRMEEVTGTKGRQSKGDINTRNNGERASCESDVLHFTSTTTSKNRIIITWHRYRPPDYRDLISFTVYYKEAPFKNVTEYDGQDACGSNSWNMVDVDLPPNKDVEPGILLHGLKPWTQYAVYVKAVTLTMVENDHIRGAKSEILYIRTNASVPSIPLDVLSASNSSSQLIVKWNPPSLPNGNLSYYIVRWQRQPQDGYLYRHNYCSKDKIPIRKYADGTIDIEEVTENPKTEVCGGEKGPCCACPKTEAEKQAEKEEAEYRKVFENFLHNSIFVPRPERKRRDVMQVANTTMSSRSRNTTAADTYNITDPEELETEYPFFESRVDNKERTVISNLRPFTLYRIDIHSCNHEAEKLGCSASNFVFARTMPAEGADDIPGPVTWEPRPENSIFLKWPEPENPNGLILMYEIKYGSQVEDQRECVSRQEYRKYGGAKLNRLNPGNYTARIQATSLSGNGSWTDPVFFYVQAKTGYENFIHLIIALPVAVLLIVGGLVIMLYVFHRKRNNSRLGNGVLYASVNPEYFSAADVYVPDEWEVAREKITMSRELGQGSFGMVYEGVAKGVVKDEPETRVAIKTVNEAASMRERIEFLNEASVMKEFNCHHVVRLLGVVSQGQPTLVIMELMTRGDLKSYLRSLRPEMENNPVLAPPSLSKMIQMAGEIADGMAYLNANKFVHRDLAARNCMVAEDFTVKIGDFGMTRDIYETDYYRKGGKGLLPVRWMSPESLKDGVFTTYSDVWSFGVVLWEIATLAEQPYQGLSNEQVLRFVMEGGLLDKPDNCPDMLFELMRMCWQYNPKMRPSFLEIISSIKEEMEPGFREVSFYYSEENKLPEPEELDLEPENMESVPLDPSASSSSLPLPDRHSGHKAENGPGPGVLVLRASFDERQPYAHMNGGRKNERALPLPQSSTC
T1 sequence (P08581 25-1390): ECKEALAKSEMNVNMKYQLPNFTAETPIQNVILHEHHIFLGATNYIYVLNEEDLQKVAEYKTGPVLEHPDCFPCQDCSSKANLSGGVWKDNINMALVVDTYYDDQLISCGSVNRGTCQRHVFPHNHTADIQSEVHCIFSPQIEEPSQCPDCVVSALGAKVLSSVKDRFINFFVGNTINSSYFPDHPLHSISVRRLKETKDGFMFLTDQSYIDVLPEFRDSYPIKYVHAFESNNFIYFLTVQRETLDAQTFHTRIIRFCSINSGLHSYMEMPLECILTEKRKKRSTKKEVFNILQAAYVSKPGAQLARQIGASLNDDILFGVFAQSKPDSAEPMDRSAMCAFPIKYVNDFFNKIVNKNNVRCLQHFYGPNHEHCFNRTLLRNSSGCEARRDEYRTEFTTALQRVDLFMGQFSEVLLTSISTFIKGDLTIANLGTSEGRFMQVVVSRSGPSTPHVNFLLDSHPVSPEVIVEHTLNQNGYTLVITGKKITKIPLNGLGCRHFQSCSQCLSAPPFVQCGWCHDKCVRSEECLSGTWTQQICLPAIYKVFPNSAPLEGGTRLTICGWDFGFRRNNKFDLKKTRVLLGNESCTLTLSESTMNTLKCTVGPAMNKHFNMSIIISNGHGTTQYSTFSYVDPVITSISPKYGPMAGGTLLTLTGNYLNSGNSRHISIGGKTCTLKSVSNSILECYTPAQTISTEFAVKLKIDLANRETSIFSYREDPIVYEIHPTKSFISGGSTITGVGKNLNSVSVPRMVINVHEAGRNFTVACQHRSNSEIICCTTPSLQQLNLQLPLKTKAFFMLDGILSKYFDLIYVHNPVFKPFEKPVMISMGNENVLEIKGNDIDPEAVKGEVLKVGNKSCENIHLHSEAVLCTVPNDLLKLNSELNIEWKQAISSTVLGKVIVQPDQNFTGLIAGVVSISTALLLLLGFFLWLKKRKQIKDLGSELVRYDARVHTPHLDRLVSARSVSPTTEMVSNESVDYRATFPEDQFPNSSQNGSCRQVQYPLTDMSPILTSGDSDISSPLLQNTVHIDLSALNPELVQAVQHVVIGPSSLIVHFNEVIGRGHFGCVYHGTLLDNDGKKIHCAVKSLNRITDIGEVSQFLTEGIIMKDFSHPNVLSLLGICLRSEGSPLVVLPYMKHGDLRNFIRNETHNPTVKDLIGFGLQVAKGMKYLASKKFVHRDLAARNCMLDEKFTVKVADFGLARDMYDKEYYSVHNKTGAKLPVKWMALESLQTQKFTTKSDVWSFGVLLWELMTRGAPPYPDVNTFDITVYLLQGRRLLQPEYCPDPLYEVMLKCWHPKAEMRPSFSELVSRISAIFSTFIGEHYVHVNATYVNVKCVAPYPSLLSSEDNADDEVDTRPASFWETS
T5 sequence (P06239 whole entry, species assumed, the tested form may be a part): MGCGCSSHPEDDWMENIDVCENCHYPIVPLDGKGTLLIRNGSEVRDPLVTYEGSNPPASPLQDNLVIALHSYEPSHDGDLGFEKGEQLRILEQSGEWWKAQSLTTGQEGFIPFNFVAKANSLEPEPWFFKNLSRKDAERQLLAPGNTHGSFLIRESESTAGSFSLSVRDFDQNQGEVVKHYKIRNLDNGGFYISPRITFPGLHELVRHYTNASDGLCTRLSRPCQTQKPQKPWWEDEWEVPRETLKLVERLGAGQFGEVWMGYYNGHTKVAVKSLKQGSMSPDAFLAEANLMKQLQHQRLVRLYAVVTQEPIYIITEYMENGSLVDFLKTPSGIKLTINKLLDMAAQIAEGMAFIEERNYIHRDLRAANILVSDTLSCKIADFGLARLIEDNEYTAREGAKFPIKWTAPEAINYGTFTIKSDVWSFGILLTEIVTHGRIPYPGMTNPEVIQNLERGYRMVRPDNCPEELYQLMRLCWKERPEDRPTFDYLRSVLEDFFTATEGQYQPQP
T4 sequence (P35968 20-1356, species assumed): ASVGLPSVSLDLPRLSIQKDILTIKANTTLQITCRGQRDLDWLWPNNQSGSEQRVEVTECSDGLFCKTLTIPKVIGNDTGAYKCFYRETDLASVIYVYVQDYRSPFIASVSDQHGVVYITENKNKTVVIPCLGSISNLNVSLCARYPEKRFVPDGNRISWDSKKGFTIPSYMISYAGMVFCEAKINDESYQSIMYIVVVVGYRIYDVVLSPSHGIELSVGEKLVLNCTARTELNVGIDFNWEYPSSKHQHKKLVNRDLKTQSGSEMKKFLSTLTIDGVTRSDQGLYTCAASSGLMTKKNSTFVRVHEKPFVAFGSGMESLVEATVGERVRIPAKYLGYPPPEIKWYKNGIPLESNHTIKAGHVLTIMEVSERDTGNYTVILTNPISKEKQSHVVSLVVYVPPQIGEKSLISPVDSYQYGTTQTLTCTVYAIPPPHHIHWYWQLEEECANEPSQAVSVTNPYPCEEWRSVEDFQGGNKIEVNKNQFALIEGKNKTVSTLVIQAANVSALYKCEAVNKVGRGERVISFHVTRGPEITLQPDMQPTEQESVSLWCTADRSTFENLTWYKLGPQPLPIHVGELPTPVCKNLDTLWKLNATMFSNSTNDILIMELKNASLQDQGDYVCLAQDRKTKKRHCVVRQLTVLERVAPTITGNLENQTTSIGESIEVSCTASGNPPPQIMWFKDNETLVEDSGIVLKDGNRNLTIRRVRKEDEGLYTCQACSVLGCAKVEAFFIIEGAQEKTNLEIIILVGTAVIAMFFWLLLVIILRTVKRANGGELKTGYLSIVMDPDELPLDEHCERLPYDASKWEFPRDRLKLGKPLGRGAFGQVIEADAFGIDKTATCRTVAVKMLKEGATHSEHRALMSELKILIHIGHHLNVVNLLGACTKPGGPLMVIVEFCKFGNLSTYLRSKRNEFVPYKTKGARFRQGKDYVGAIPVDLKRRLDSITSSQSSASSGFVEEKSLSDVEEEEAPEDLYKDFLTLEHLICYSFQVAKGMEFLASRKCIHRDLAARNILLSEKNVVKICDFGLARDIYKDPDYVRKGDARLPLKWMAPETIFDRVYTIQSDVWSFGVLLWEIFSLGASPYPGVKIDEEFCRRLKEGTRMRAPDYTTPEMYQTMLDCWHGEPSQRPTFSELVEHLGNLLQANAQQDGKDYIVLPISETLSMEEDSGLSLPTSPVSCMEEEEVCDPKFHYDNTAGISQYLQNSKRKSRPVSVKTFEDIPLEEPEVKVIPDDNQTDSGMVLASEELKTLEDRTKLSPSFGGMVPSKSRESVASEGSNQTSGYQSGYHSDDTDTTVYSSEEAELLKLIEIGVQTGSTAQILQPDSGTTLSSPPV

SMILES | IC50 (c-Met) [µM] | IC50 (IGFR-1) [µM] | IC50 (Itk) [µM] | IC50 (Kdr) [µM] | IC50 (Lck) [µM] | IC50 (EGFR) [µM] | IC50 (Zap-70) [µM] | IC50 (AKT) [µM]
CCOC(=O)Cc1ccc(Nc2ncnc(-c3ccccc3)n2)cc1 [Compound 164] | > 13.5 | > 13.5 | > 13.5 | > 13.5 | > 13.5 | > 13.5 | > 13.5 | > 13.5
OCc1ccc(Nc2ncnc(-c3ccccc3)n2)cc1 [Compound 165] | > 16.2 | > 16.2 | > 16.2 | > 16.2 | > 16.2 | > 16.2 | > 16.2 | > 16.2
COc1cc(Nc2ncnc(N3CCCC3)n2)cc(OC)c1OC [Compound 181] | > 13.6 | > 13.6 | > 13.6 | > 13.6 | > 13.6 | > 13.6 | > 13.6 | > 13.6
COc1cc(Nc2ncnc(-n3ccnc3)n2)cc(OC)c1OC [Compound 183] | > 13.7 | > 13.7 | > 13.7 | 7.31 to 10.7 | > 13.7 | > 13.7 | > 13.7 | > 13.7
COc1cc(Nc2ncnc(N3CCc4ccc([N+](=O)[O-])cc43)n2)cc(OC)c1OC [Compound 191] | > 10.6 | > 10.6 | > 10.6 | 5.65 to 8.25 | > 10.6 | > 10.6 | > 10.6 | > 10.6
COc1cc(Nc2ncnc(-n3cc(OC(C)=O)c4ccccc43)n2)cc(OC)c1OC [Compound 205] | > 10.3 | > 10.3 | > 10.3 | 5.51 to 8.04 | > 10.3 | > 10.3 | > 10.3 | > 10.3
COc1cc(Nc2ncnc(N3CCOCC3)n2)cc(OC)c1OC [Compound 209] | > 13 | > 13 | > 13 | > 13 | > 13 | > 13 | > 13 | 10.1 to 13
COc1cc(Nc2ncnc(N3CCN(C(=O)OC(C)(C)C)CC3)n2)cc(OC)c1OC [Compound 211] | > 10.1 | > 10.1 | > 10.1 | 5.38 to 7.84 | > 10.1 | > 10.1 | > 10.1 | > 10.1
COc1cc(Nc2ncnc(N3CCN(c4ccccn4)CC3)n2)cc(OC)c1OC [Compound 213] | > 10.6 | > 10.6 | > 10.6 | 0.945 to 5.67 | > 10.6 | > 10.6 | > 10.6 | > 10.6
COc1cc(Nc2ncnc(N3CCN(c4ncccn4)CC3)n2)cc(OC)c1OC [Compound 214] | 5.65 to 8.25 | > 10.6 | > 10.6 | 0.942 to 5.65 | > 10.6 | > 10.6 | > 10.6 | > 10.6
COc1cc(Nc2ncnc(-c3cccs3)n2)cc(OC)c1OC [Compound 217] | 10.2 to 13.1 | > 13.1 | > 13.1 | 6.97 to 10.2 | 1.16 to 6.97 | > 13.1 | > 13.1 | > 13.1
COc1cc(Nc2ncnc(-c3cccnc3)n2)cc(OC)c1OC [Compound 219] | > 13.3 | > 13.3 | > 13.3 | 1.18 to 7.07 | > 13.3 | > 13.3 | > 13.3 | > 13.3
COc1cc(Nc2ncnc(Nc3ncncn3)n2)cc(OC)c1OC [Compound 254] | > 12.6 | > 12.6 | > 12.6 | > 12.6 | > 12.6 | > 12.6 | > 12.6 | > 12.6
COc1cc(Nc2ncnc(N3CCc4ccccc4C3)n2)cc(OC)c1OC [Compound 326] | > 11.4 | > 11.4 | > 11.4 | > 11.4 | > 11.4 | > 11.4 | > 11.4 | > 11.4
COc1cc(Nc2ncnc(-n3ccc4cccnc43)n2)cc(OC)c1OC [Compound 327] | > 11.9 | 6.34 to 9.25 | 1.06 to 6.34 | > 11.9 | 1.06 to 6.34 | > 11.9 | > 11.9 | > 11.9
COc1cc(Nc2ncnc(-c3ccnc(Cl)c3)n2)cc(OC)c1OC [Compound 331] | > 12 | > 12 | > 12 | > 12 | > 12 | > 12 | > 12 | > 12
COc1ccc2c(c1)c(CCN(C)C)cn2-c1ncnc(Nc2cc(OC)c(OC)c(OC)c2)n1 [Compound 333] | > 9.4 | > 9.4 | > 9.4 | > 9.4 | > 9.4 | > 9.4 | > 9.4 | > 9.4
COc1cc(Nc2ncnc(-c3ccnc(N4CCCCC4)c3)n2)cc(OC)c1OC [Compound 345] | 0.947 to 5.68 | 0.947 to 5.68 | > 10.7 | < 0.947 | 0.947 to 5.68 | > 10.7 | > 10.7 | > 10.7
FC(F)C(F)(F)Oc1cccc(Nc2ncnc(-c3ccnc(N4CCCCC4)c3)n2)c1 [Compound 346] | > 10 | > 10 | > 10 | 0.892 to 5.35 | > 10 | > 10 | > 10 | > 10
c1csc(-c2ncnc(Nc3ccc(N4CCOCC4)cc3)n2)c1 [Compound 349] | 10.3 to 13.3 | > 13.3 | > 13.3 | 10.3 to 13.3 | 1.18 to 7.07 | > 13.3 | > 13.3 | 10.3 to 13.3
FC(F)C(F)(F)Oc1cccc(Nc2ncnc(-c3cccs3)n2)c1 [Compound 350] | > 12.2 | > 12.2 | > 12.2 | > 12.2 | > 12.2 | > 12.2 | > 12.2 | > 12.2
O=[N+]([O-])c1cccc(Nc2ncnc(-c3cccs3)n2)c1 [Compound 352] | > 15 | > 15 | > 15 | > 15 | > 15 | > 15 | > 15 | > 15
NC(=O)c1ccc(Nc2ncnc(-c3cccs3)n2)cc1 [Compound 354] | > 15.1 | > 15.1 | > 15.1 | > 15.1 | > 15.1 | > 15.1 | > 15.1 | > 15.1
CC(=O)Nc1ccc(Nc2ncnc(-c3cccs3)n2)cc1 [Compound 355] | > 14.5 | > 14.5 | > 14.5 | > 14.5 | > 14.5 | > 14.5 | > 14.5 | > 14.5
N#Cc1ccc(Nc2ncnc(-c3cccs3)n2)cc1 [Compound 356] | > 16.1 | > 16.1 | > 16.1 | > 16.1 | > 16.1 | > 16.1 | > 16.1 | > 16.1
